# Values of other authors, collected in article PMC3580849 (Bioorganic & medicinal chemistry letters, 2011).
# Tested on: Human M1 fibroblasts
# Conditions: positive control, previously determined
substance,measurement,value
"H-KDLLEQKRAAVDTYC-NH2 [65–79*0401, H-Lys-Asp-Leu-Leu-Glu-Gln-Lys-Arg-Ala-Ala-Val-Asp-Thr-Tyr-Cys-NH2]",optimal concentration for activation of NO production,50 µM
